In brackets after ≈: the same amount, converted by molar mass. Like-named read-outs stand apart in the source and are kept apart here.
Columns and labels:
[1] = molecular target: Isoleucyl-tRNA synthetase (IleRS) (Escherichia coli (strain K12), UniProt P00956); experiment: Isoleucyl-tRNA synthetase enzyme inhibition (AMP-Glo; single point % inhibition at 100 μM and IC50); type: biochemical; settings: E. coli IleRS; read-out: Enzyme Inhibition - IC50, E. coli IleRS
Text: Study 1—Enzyme Inhibition
The aminoacylation reaction catalyzed by aminoacyl-tRNA synthetases (aaRS) takes place in two steps. In the first step, aaRS activates its cognate amino acid with ATP; and in the second step the activated amino acid is loaded to its corresponding tRNA. This reaction can be summarized as follows: aaRS+aa+ATP=aaRS-aa-AMP+PPi aaRS-aa-AMP+tRNA=aa-tRNA+AMP+aaRS […]
wherein: aaRS, aminoacyl-tRNA synthetase; aa, amino acid; aaRS-aa-AMP, enzyme-bound to aminoacyl-adenylate; AMP, adenosine monophosphate; aa-tRNA, aminoacyl-tRNA, PPi, inorganic pyrophosphate.
Isoleucyl-tRNA Synthetase a. Single Point Percentage Inhibition
The activity of the pathogenic aaRSs was monitored by measuring AMP production using the commercial kit AMP-Glo (Promega, Madison, USA).
Ligand stock solutions were prepared in 100% DMSO at 10 mM concentration. An assay buffer consisting of 100 mM Tris HCl pH 7.6, 40 mM MgCl, 20 mM KCl and 150 mM NaCl was prepared in dH2O. An enzyme solution containing 51.77 μM IleRS was prepared in assay buffer to provide 30 nM final assay concentration and 75 nM reservoir concentration for a 1:2.5 dilution in the assay. A substrate solution was also prepared in assay buffer with 50 mM L-isoleucine, 10 mM ATP and 100 mg/mL tRNA. A final assay concentration of 500 μM L-isoleucine, 5 μM ATP and 1 mg/mL tRNA and reservoir concentration of 833.33 μM L-isoleucine, 8.33 μM ATP and 1.67 mg/mL tRNA was used for a 1:1.66 dilution in assay.
Enzyme percentage inhibition values were recorded in triplicate at a single point concentration of 100 μM.
Using the same enzymatic assay in a 384-well plate format, ten point concentration response curves were generated for each compound using a top concentration of 100 μM. The known inhibitor, IleAMS was used as a positive control for the IleRS assay. 100% DMSO was used as a negative control. The IC50 was calculated based on non-linear regression analysis.

[2] = test system: bacteria (ATCC reference strains); experiment: Antibacterial activity, MIC by broth micro-dilution (CLSI)
[3] = Human cell viability / cytotoxicity (CellTiter-Glo, 24 hours); type: cell-based; settings: human, HepG2 cells (ATCC HB-8065); HepG2 ATCC HB-8065, 24 hours; read-out: Cytotoxicity in HepG2 ATCC HB-8065 Cell Line, IC50
Outline: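 HepG2 cells (15,000/well, MEM with 1% NEAA and 1% pyruvate) were grown 2 days, then exposed to compounds in duplicate for 24 h at 1.28% DMSO. Viability was read as ATP by CellTiter-Glo luminescence relative to DMSO-only wells. IC50 is in μg/mL.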

[4] = test system: E. coli UT189; experiment: Efficacy in a murine model of urinary tract infection (microbial burden in urine, bladder, kidney); type: in vivo; settings: Experiment 1, mouse UTI
Procedure: All animal studies were performed under UK Home Office License PA67E0BAA (protocol E9 for UTI model) with local ethical committee clearance. All studies were performed by technicians who have completed parts A, B and C of the UK Home Office Personal License course and hold current personal licenses. All experiments were performed in dedicated Biohazard 2 facilities (the site holds a Certificate of Designation). Female mice used in these studies were supplied by Janvier laboratories and were specific pathogen free. The strain of mouse used was C3H/HeNRj, which is a well characterized inbred strain. Mice were 16-20 g on receipt and were allowed to acclimatize for at least 7 days prior to any intervention. Five days prior to infection mice were transferred onto drinking water containing 5% glucose. […] It was stored at 4° C. between doses. Test articles were prepared by solubilising in water for injection, taking the salt correction factor into account. […] Mice (n=6 per group) were infected by directly administering 0.05 mL of inoculum via the urethra into the bladder under parenteral anaesthesia. Drinking water was withheld two hours pre-infection and bladders were emptied prior to infection. Once infected, infection catheters were left in the urinary tract for 10 minutes to reduce the risk of the organism flowing back out. The mice were monitored at a frequency appropriate for their clinical condition. Mouse weights were recorded at least once daily both to ensure animals remained within ethical limits and to monitor efficacy of treatment. Twenty-four hours post infection, urine was collected from pre-treatment animals and used to assess the infection level. Urine samples were quantitatively cultured onto MacConkey's agar plates and incubated at 37° C. for 24 hours before colonies were counted. In addition, five mice were euthanised by pentobarbitone overdose to provide a 24 hour pre-treatment control group. Forty-eight hours post-infection, urine was collected from all mice. Seventy-two hours post infection, the clinical condition and body weight of all remaining animals was assessed and urine samples were collected. Animals were then euthanised by pentobarbitone overdose and kidneys and bladders were removed and weighed. Tissue samples were homogenized using a Precellys 24 dual bead beater in 2 mL ice cold sterile phosphate buffered saline. Homogenates and urine samples were quantitatively cultured onto MacConkey's agar plates and incubated at 37° C. for 24 hours before colonies were counted. Data Analysis The data from the culture burdens were analysed using appropriate non-parametric statistical models (Kruskal-Wallis using Conover-Inman to make all pairwise comparisons between groups) with StatsDirect software, and compared to pretreatment and vehicle controls.

[5] = molecular target: Leucyl-tRNA synthetase (LeuRS) (Escherichia coli (strain K12), UniProt P07813); experiment: Leucyl-tRNA synthetase enzyme inhibition (AMP-Glo; single point % inhibition at 100 μM and IC50); type: biochemical
[6] = test system: E. coli ATCC 25922; experiment: Efficacy in a murine model of disseminated infection (microbial burden in blood, kidney, spleen); type: in vivo; settings: mouse, harvest 5 hr
[7] = Acinetobacter baumannii, read-out: Antibacterial Activity (MIC), E = A. baumannii B1931
[8] = Enterobacter cloacae, read-out: Antibacterial Activity (MIC), B = Enterobacter cloacae B1966
[9] = Escherichia coli, ATCC25922, read-out: Antibacterial Activity (MIC), A = E. coli ATCC 25922
[10] = Haemophilus influenzae, ATCC49247, read-out: Antibacterial Activity (MIC), F = H. influenzae ATCC 49247
[11] = Klebsiella pneumoniae, ATCC700603, read-out: Antibacterial Activity (MIC), C = K. pneumoniae ATCC 700603
[12] = Pseudomonas aeruginosa, ATCC27853, read-out: Antibacterial Activity (MIC), D = P. aeruginosa ATCC 27853
[13] = 1.875 mg/kg/dose sc 1 and 3 hr post-infection
[14] = 7.5 mg/kg/dose po 1 and 3 hr post-infection
[15] = 7.5 mg/kg/dose sc 1 and 3 hr post-infection
[16] = 30 mg/kg/dose po 1 and 3 hr post-infection
[17] = 30 mg/kg/dose sc 1 and 3 hr post-infection

Sequence of Isoleucyl-tRNA synthetase (IleRS) (P00956 whole entry, looked up): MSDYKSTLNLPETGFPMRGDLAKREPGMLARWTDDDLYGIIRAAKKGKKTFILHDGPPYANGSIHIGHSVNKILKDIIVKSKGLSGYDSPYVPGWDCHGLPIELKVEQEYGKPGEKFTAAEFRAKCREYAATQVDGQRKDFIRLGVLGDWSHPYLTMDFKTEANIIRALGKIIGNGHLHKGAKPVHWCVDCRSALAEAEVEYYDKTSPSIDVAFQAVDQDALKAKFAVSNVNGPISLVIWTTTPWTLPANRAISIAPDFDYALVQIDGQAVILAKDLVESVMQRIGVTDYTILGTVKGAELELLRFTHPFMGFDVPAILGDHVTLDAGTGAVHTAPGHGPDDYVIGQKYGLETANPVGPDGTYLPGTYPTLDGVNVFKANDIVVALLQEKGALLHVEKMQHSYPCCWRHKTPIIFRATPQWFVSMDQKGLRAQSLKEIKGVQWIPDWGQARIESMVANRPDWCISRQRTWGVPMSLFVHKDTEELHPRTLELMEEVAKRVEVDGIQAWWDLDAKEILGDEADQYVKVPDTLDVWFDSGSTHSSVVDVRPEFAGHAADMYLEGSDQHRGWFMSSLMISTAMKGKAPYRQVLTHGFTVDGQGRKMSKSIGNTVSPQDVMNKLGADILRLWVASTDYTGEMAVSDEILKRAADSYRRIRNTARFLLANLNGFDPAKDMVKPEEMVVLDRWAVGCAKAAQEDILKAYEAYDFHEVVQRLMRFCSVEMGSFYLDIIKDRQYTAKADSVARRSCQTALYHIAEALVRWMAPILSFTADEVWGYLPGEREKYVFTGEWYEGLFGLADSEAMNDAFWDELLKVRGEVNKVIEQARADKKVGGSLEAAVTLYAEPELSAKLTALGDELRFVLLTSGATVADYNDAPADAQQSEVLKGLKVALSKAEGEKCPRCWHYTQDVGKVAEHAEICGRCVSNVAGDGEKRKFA
Sequence of Leucyl-tRNA synthetase (LeuRS) (P07813 whole entry, looked up): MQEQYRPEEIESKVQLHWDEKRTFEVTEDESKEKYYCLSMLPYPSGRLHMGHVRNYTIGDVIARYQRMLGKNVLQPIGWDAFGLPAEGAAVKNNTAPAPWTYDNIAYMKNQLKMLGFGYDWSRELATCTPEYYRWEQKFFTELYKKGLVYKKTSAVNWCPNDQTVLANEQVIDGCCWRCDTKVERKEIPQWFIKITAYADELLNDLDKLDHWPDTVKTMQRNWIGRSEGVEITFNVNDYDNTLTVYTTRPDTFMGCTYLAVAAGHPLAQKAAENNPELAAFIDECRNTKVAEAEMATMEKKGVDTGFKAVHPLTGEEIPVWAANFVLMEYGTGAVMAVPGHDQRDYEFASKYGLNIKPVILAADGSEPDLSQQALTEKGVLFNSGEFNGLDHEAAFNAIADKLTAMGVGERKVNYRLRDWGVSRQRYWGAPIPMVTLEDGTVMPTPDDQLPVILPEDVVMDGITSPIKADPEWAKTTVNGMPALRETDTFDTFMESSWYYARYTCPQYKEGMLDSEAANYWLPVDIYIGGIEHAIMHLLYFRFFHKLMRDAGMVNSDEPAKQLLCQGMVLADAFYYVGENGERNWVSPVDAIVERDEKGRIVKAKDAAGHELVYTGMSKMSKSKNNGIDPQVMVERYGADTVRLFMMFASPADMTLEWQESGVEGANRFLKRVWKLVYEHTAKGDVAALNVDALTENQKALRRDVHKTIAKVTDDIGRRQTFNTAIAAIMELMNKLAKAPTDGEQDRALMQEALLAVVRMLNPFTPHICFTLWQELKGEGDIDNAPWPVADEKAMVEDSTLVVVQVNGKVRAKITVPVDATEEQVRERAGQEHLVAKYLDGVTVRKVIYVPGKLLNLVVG

## CC[C@H](C)[C@H](N)C(=O)N=[S@@](N)(=O)c1ccc(Cl)cc1.Cl [ANASIA-035-2]
[1]
  IC50: 4.65 µM
[2]; [7]
  MIC: > 64 µg/mL
[2]; [8]
  MIC: > 64 µg/mL
[2]; [9]
  MIC: > 64 µg/mL
[2]; [10]
  MIC: 64 µg/mL
[2]; [11]
  MIC: > 64 µg/mL
[2]; [12]
  MIC: > 64 µg/mL
[3]
  IC50 at 24 h: > 64 µg/mL

## CC[C@H](C)[C@H](N)C(=O)N=S(N)(=O)c1cc2ccccc2s1 (some centres unmarked) [ANASIA-037]
[1]
  IC50: 2.74 µM
[2]; [7]
  MIC: > 64 µg/mL
[2]; [8]
  MIC: > 64 µg/mL
[2]; [9]
  MIC: > 64 µg/mL
[2]; [10]
  MIC: 32 µg/mL (≈ 98.3 µM)
[2]; [11]
  MIC: > 64 µg/mL
[2]; [12]
  MIC: > 64 µg/mL
[3]
  IC50 at 24 h: > 64 µg/mL

## CC[C@H](C)[C@H](N)C(=O)N=S(N)(=O)c1ccc(C(F)F)s1 (some centres unmarked) [ANASIA-038]
[1]
  IC50: 15.8 µM
[2]; [7]
  MIC: > 64 µg/mL
[2]; [8]
  MIC: > 64 µg/mL
[2]; [9]
  MIC: > 64 µg/mL
[2]; [10]
  MIC: 64 µg/mL (≈ 197 µM)
[2]; [11]
  MIC: > 64 µg/mL
[2]; [12]
  MIC: > 64 µg/mL
[3]
  IC50 at 24 h: > 64 µg/mL

## CC(C)C[C@H](N)C(=O)N=[S@](N)(=O)c1scc(F)c1F.Cl [ANASIA-103-1]
[4]; 5 mg/kg/dose sc every 4 hours
  Reduction in burden from vehicle control, Bladder 72 hr: 1.28 Log10 cfu/g or mL
  Reduction in burden from vehicle control, Kidney 72 hr: 0.93 Log10 cfu/g or mL
  Reduction in burden from vehicle control, Urine 48 hr: 1.36 Log10 cfu/g or mL
  Reduction in burden from vehicle control, Urine 72 hr: 0.11 Log10 cfu/g or mL
[4]; 15 mg/kg/dose sc every 4 hours
  Reduction in burden from vehicle control, Bladder 72 hr: 2.08 Log10 cfu/g or mL
  Reduction in burden from vehicle control, Kidney 72 hr: 2.28 Log10 cfu/g or mL
  Reduction in burden from vehicle control, Urine 48 hr: 2.14 Log10 cfu/g or mL
  Reduction in burden from vehicle control, Urine 72 hr: 2.71 Log10 cfu/g or mL
[4]; 45 mg/kg/dose sc every 4 hours
  Reduction in burden from vehicle control, Bladder 72 hr: 1.49 Log10 cfu/g or mL
  Reduction in burden from vehicle control, Kidney 72 hr: 1.25 Log10 cfu/g or mL
  Reduction in burden from vehicle control, Urine 48 hr: 1.74 Log10 cfu/g or mL
  Reduction in burden from vehicle control, Urine 72 hr: 2.64 Log10 cfu/g or mL
[2]; [7]
  MIC: 16 µg/mL
[2]; [9]
  MIC: 1 µg/mL
[2]; Escherichia coli, BAA2469, read-out: Antibacterial Activity (MIC), G = E. coli BAA-2469
  MIC: 10.1 µg/mL
[2]; [10]
  MIC: 1 µg/mL
[2]; [11]
  MIC: 64 µg/mL
[2]; [12]
  MIC: 64 µg/mL
[5]
  IC50: 19.5 nM
[6]; [13]
  Reduction in burden from vehicle control, Blood: 0.32 Log10 cfu/g or mL
  Reduction in burden from vehicle control, Kidney: 1.26 Log10 cfu/g or mL
  Reduction in burden from vehicle control, Spleen: 0.60 Log10 cfu/g or mL
[6]; [14]
  Reduction in burden from vehicle control, Blood: 0.43 Log10 cfu/g or mL
  Reduction in burden from vehicle control, Kidney: 1.28 Log10 cfu/g or mL
  Reduction in burden from vehicle control, Spleen: 1.46 Log10 cfu/g or mL
[6]; [15]
  Reduction in burden from vehicle control, Blood: 1.26 Log10 cfu/g or mL
  Reduction in burden from vehicle control, Kidney: 1.66 Log10 cfu/g or mL
  Reduction in burden from vehicle control, Spleen: 1.64 Log10 cfu/g or mL
[6]; [16]
  Reduction in burden from vehicle control, Blood: 0.81 Log10 cfu/g or mL
  Reduction in burden from vehicle control, Kidney: 1.59 Log10 cfu/g or mL
  Reduction in burden from vehicle control, Spleen: 1.61 Log10 cfu/g or mL
[6]; [17]
  Reduction in burden from vehicle control, Blood: 2.18 Log10 cfu/g or mL
  Reduction in burden from vehicle control, Kidney: 3.06 Log10 cfu/g or mL
  Reduction in burden from vehicle control, Spleen: 2.24 Log10 cfu/g or mL
[3]
  IC50 at 24 h: > 64 µg/mL
